Test results: publication PMC11124822, “Discovery and Anticancer Screening of Novel Oxindole-Based Derivative Bearing Pyridyl Group as Potent and Selective Dual FLT3/CDK2 Kinase Inhibitor” (Pharmaceuticals, 2024)

Tests used:
CDK2 = target: T1, CDK2 (Homo sapiens, UniProt P24941); assay: Z'-LYTE kinase assay; assay type: biochemical
T1 construct: purchased Invitrogen/Life Technologies
Description: (§1) The Z’-LYTE® technology, which relies on FRET (Fluorescence Resonance Energy Transfer) from Invitrogen/Life Technologies, was employed for this evaluation for all kinases except VEGFR-2. The VEGFR-2 kinase assay was conducted in a 96-well streptavidin-coated plate using a recombinant human VEGFR-2/KDR ELISA kit, following the manufacturer’s instructions. […] Statistical significance was assessed using one-way analysis of variance (ANOVA), followed by the Dunnett test; data are represented as means ± SD.

FLT3 = target: T2, FLT3 (Homo sapiens, UniProt P36888); assay: Z'-LYTE kinase assay; assay type: biochemical
T2 construct: purchased Invitrogen/Life Technologies
T2 sequence (P36888 27-993): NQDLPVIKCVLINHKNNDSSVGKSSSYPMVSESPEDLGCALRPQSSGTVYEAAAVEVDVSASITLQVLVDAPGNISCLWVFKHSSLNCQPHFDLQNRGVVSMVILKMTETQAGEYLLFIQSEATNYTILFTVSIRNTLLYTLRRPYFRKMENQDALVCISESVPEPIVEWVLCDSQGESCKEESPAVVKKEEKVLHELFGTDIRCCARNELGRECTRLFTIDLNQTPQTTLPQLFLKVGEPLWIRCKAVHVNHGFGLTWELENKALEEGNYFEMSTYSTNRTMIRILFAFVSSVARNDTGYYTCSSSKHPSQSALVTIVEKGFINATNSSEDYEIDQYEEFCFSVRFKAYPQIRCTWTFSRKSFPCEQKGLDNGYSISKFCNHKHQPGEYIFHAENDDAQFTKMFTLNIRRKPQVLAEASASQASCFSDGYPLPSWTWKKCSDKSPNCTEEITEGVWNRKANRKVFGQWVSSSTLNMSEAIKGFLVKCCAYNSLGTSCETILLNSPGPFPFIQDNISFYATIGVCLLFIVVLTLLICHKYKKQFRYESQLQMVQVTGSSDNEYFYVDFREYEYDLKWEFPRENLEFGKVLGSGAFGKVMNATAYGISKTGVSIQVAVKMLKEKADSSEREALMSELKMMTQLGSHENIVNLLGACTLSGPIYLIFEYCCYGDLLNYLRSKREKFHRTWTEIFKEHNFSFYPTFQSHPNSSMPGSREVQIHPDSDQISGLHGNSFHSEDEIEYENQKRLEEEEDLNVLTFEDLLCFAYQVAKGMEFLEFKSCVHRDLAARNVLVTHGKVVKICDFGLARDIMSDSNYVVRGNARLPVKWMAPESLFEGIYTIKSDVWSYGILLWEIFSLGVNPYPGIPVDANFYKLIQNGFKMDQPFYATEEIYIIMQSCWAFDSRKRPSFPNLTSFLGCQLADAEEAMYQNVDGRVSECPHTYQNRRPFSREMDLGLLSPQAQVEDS
Description: as §1

[1] = three separate experiments ± SD

In the case of `O=C1Nc2cc(Cl)ccc2C1=Cc1ccc(OCc2cccnc2)cc1` (mixture of isomers) [Compound 5l, (E/Z)-6-Chloro-3-[4-(pyridin-3-ylmethoxy)benzylidene] indolin-2-one], the inhibition at 10 µM (CDK2; 10 µM, CDK2) is reported as 87.7%, the IC50 (CDK2; [1]) is reported as 8.17 ± 0.32 nM and the inhibition at 10 µM (FLT3; 10 µM, FLT3) is reported as 92.6%. It also gave an IC50 (FLT3; [1]) of 36.2 ± 1.07 nM.
